Measurements as given in PubChem BioAssay AID248 (DTP/NCI, 2004).
Where “and” joins values, the source holds several entries; their conditions need not be identical. Identical values can stand only once. Toxic doses and inconclusive results are not listed.

Test system: L1210 leukemia ip in BDF1 mice, survival T/C
Test: NCI In Vivo Anticancer Drug Screen. Data for tumor model L1210 Leukemia (intraperitoneal) in B6D2F1 (BDF1) mice
Conditions: endpoint: mean survival time, higher = longer survival
Method in brief: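 Read-out is survival time, reported as the treated-group measurement over the vehicle-control measurement.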

[1] = dose: 100.0 mg/kg/injection, schedule: Q04DX003 (ip), vehicle: saline
[2] = dose: 200.0 mg/kg/injection, schedule: Q04DX003 (ip), vehicle: saline
[3] = dose: 400.0 mg/kg/injection, schedule: Q04DX003 (ip), vehicle: saline
[4] = dose: 100.0 mg/kg/injection, schedule: Q01DX009 (ip), vehicle: Klucel (hydroxypropylcellulose) (HPC)
[5] = dose: 100.0 mg/kg/injection, schedule: Q04DX003 (ip), vehicle: Klucel (hydroxypropylcellulose) (HPC)
[6] = dose: 200.0 mg/kg/injection, schedule: Q04DX003 (ip), vehicle: Klucel (hydroxypropylcellulose) (HPC)
[7] = dose: 50.0 mg/kg/injection, schedule: Q01DX001 (ip), vehicle: saline with Tween-80
[8] = dose: 100.0 mg/kg/injection, schedule: Q01DX001 (ip), vehicle: saline with Tween-80
[9] = dose: 200.0 mg/kg/injection, schedule: Q01DX001 (ip), vehicle: saline with Tween-80
[10] = dose: 100.0 mg/kg/injection, schedule: Q04DX003 (ip), vehicle: saline with Tween-80
[11] = dose: 200.0 mg/kg/injection, schedule: Q04DX003 (ip), vehicle: saline with Tween-80
[12] = dose: 400.0 mg/kg/injection, schedule: Q04DX003 (ip), vehicle: saline with Tween-80

Question: With `CC(C)c1c[nH]c(=O)[nH]c1=O` as the compound, how does the T/C (dose: 100.0 mg/kg/injection, schedule: Q01DX009 (ip), vehicle: other) read?
Answer: Its T/C is 102 % of control.

Question: And the T/C [1]?
Answer: Its T/C is 91 % of control.

Question: And the T/C (dose: 200.0 mg/kg/injection, schedule: Q01DX009 (ip), vehicle: other)?
Answer: Its T/C is 96 % of control.

Question: And the T/C [2]?
Answer: Its T/C is 93 % of control.

Question: And the T/C (dose: 400.0 mg/kg/injection, schedule: Q01DX009 (ip), vehicle: other)?
Answer: The T/C was 102 % of control.

Question: What about the T/C [3] of the same compound?
Answer: The T/C was 91 % of control.

Question: `O=c1ccc(=O)c2c(=O)c3ccccc3c(=O)c1=2` was tested. Which T/C (dose: 50.0 mg/kg/injection, schedule: Q01DX009 (ip), vehicle: Klucel (hydroxypropylcellulose) (HPC)) did it give?
Answer: The T/C was 97 % of control.

Question: And the T/C [4]?
Answer: The T/C was 95 % of control.

Question: What about the T/C [5] of the same compound?
Answer: Its T/C is 101 % of control.

Question: What about the T/C [6] of the same compound?
Answer: The T/C was 103 % of control.

Question: Which T/C (dose: 100.0 mg/kg/injection, schedule: Q01DX001 (ip), vehicle: Klucel (hydroxypropylcellulose) (HPC)) does the source give for `CCCCCCCCCCCCCOc1ccc2ccccc2c1` here?
Answer: The T/C was 326 % of control.

Question: And the T/C (dose: 200.0 mg/kg/injection, schedule: Q01DX001 (ip), vehicle: Klucel (hydroxypropylcellulose) (HPC))?
Answer: The T/C was 165 % of control.

Question: What about the T/C (dose: 400.0 mg/kg/injection, schedule: Q01DX001 (ip), vehicle: Klucel (hydroxypropylcellulose) (HPC)) of the same compound?
Answer: Its T/C is 92 % of control.

Question: What does the source list for `Nc1nc(N)c(N)c(SCC(=O)C(=O)O)n1`?
Answer: T/C (dose: 25.0 mg/kg/injection, schedule: Q01DX001 (ip), vehicle: saline with Tween-80): 108 % of control; T/C [7]: 111 % of control; T/C [8]: 106 % of control and 108 % of control; T/C [9]: 115 % of control

Question: With `COc1cc(/C=C/C(=O)c2ccc3c(c2)OCO3)ccc1OCc1ccccc1` as the compound, how does the T/C (dose: 100.0 mg/kg/injection, schedule: Q04DX003 (ip), vehicle: water) read?
Answer: Its T/C is 93 % of control.

Question: What about the T/C (dose: 200.0 mg/kg/injection, schedule: Q04DX003 (ip), vehicle: water) of the same compound?
Answer: The T/C was 91 % of control.

Question: What about the T/C (dose: 400.0 mg/kg/injection, schedule: Q04DX003 (ip), vehicle: water) of the same compound?
Answer: The T/C was 93 % of control.

Question: What does the source list for `CC(O)C1CCC2C3CCC4CC(SC(=O)c5ccccc5)CCC4(C)C3CCC12C` (configuration not stated)?
Answer: T/C (dose: 50.0 mg/kg/injection, schedule: Q01DX001 (sc), vehicle: steriod suspending solution): 103 % of control; T/C (dose: 100.0 mg/kg/injection, schedule: Q01DX001 (sc), vehicle: steriod suspending solution): 97 % of control; T/C (dose: 200.0 mg/kg/injection, schedule: Q01DX001 (sc), vehicle: steriod suspending solution): 97 % of control; T/C (dose: 400.0 mg/kg/injection, schedule: Q01DX001 (sc), vehicle: steriod suspending solution): 94 % of control

Question: What does the source list for `O=c1c(CCO)c(C2CC2)n2n1CCCC2`?
Answer: T/C (dose: 9.38 mg/kg/injection, schedule: Q01DX001 (ip), vehicle: other): 94 % of control; T/C (dose: 18.75 mg/kg/injection, schedule: Q01DX001 (ip), vehicle: other): 103 % of control

Question: Which T/C [10] does the source give for `CCCCOP(=O)(Cc1cc(C)cc(C)c1)OCCCC` here?
Answer: The T/C was 87 % of control.

Question: And the T/C [11]?
Answer: The T/C was 101 % of control.

Question: With `Nc1nc(C=O)c(Cc2ccc3ccccc3c2)c(=O)[nH]1` as the compound, how does the T/C [10] read?
Answer: The T/C was 100 % of control.

Question: What about the T/C [11] of the same compound?
Answer: Its T/C is 108 % of control.

Question: And the T/C [12]?
Answer: The T/C was 110 % of control.

Question: `Clc1cc2n[nH]nc2c(SCc2ccccc2)n1` was tested. Which T/C (dose: 50.0 mg/kg/injection, schedule: Q01DX005 (ip), vehicle: saline with Tween-80) did it give?
Answer: The T/C was 101 % of control.

Question: What about the T/C (dose: 100.0 mg/kg/injection, schedule: Q01DX005 (ip), vehicle: saline with Tween-80) of the same compound?
Answer: Its T/C is 90 % of control.

Question: What about the T/C (dose: 200.0 mg/kg/injection, schedule: Q01DX005 (ip), vehicle: saline with Tween-80) of the same compound?
Answer: Its T/C is 97 % of control.

Question: How did the T/C [10] turn out when `CCN(CC)c1ccc(N=Nc2cc(Cl)ccc2Cl)c(NC(=O)CCC(=O)O)c1` was run?
Answer: The T/C was 96 % of control.

Question: What about the T/C [11] of the same compound?
Answer: The T/C was 96 % of control.

Question: And the T/C [12]?
Answer: The T/C was 95 % of control.

Question: For `Cc1cc(C)c2nc(-c3ccc(F)cc3)cc(C(=O)O)c2c1`, which T/C (dose: 50.0 mg/kg/injection, schedule: Q04DX003 (ip), vehicle: saline) is on record?
Answer: The T/C was 97 % of control.

Question: And the T/C (dose: 100.0 mg/kg/injection, schedule: Q01DX001 (ip), vehicle: saline)?
Answer: The T/C was 101 % of control.

Question: And the T/C [1]?
Answer: The T/C was 97 % of control.

Question: And the T/C (dose: 200.0 mg/kg/injection, schedule: Q01DX001 (ip), vehicle: saline)?
Answer: Its T/C is 93 % of control.

Question: And the T/C [2]?
Answer: Its T/C is 96 % of control.

Question: Which T/C [7] does the source give for `CC(C)(C)NC/C(=C\c1ccccc1)S(=O)(=O)c1ccccc1[N+](=O)[O-]` here?
Answer: The T/C was 91 % of control.

Question: And the T/C [8]?
Answer: Its T/C is 93 % of control.

Question: And the T/C [9]?
Answer: Its T/C is 95 % of control.

Question: How did the T/C [4] turn out when `O=S(=O)(Nc1ccc(NS(=O)(=O)c2ccccc2)nc1)c1ccccc1` was run?
Answer: Its T/C is 96 % of control.

Question: What about the T/C [5] of the same compound?
Answer: Its T/C is 101 % of control.

Question: And the T/C (dose: 200.0 mg/kg/injection, schedule: Q01DX009 (ip), vehicle: Klucel (hydroxypropylcellulose) (HPC))?
Answer: The T/C was 98 % of control.

Question: And the T/C [6]?
Answer: The T/C was 97 % of control.

Question: And the T/C (dose: 400.0 mg/kg/injection, schedule: Q01DX009 (ip), vehicle: Klucel (hydroxypropylcellulose) (HPC))?
Answer: The T/C was 101 % of control.

Question: And the T/C (dose: 400.0 mg/kg/injection, schedule: Q04DX003 (ip), vehicle: Klucel (hydroxypropylcellulose) (HPC))?
Answer: The T/C was 101 % of control.

Question: With `O=C1CC(c2ccccc2Cl)N(S(=O)(=O)c2ccccc2)N1` (configuration not stated) as the compound, how does the T/C (dose: 100.0 mg/kg/injection, schedule: Q01DX009 (ip), vehicle: saline) read?
Answer: Its T/C is 112 % of control.

Question: What about the T/C [1] of the same compound?
Answer: Its T/C is 104 % of control.

Question: What about the T/C (dose: 200.0 mg/kg/injection, schedule: Q01DX009 (ip), vehicle: saline) of the same compound?
Answer: The T/C was 107 % of control.

Question: What about the T/C [2] of the same compound?
Answer: The T/C was 102 % of control.

Question: What about the T/C (dose: 400.0 mg/kg/injection, schedule: Q01DX009 (ip), vehicle: saline) of the same compound?
Answer: Its T/C is 106 % of control.

Question: What about the T/C [3] of the same compound?
Answer: Its T/C is 102 % of control.
